Assay results as given in patent US20140161720A1, “TREATMENT OF ANGIOGENIC- OR VASCULAR-ASSOCIATED DISEASES” (THE GENERAL HOSPITAL CORPORATION, priority 2011, published 2014).
Entries after “also recorded” stand apart in the source; their conditions may differ.

Assays:
Assay type in all cases: cell-based, human
HUVEC = experiment: In vitro vascular network formation on matrigel
Protocol: For F-actin visualization, HUVECs were plated and treated with saline or DAL (10 μM) for three hours. After fixing and permeabilizing these cultured cells, the cells were subsequently stained with phalloidin. […] Existing cordlike structures, when exposed to 10 μM of DAL for 3 hours, were also disrupted. […] HUVEC monolayers were disrupted mechanically with a pipette tip and the migration of cells to “heal” the wound was monitored using microscopy.
To assess whether DAL affects EC functions, in vitro models of vascular network formation from HUVECs were used. After overnight cultivation in matrigel, HUVECs spontaneously assemble into cord-like structures that resemble vascular networks. […] Since DAL affects actin cytoskeleton assembly, the effect of DAL on cell motility was next assessed. A scratch wound assay was utilized to study HUVEC motility based on the healing rate of a wounded monolayer.

MDA-MB-231 cells = experiment: Cell spreading and F-actin visualization on fibronectin (phalloidin); details: 5 μM, two hours
Excerpt: FIGS. 1A to 1E show a schematics of an exemplary drug screen for antivascular agent described herein, e.g., dehydro-alpha-lapachone (DAL) and effects of DAL on cell adhesion properties. […] Of the 50,000 compounds screened, 86 compounds were selected to test in the secondary assays. Only compounds that made MDA-MB-231 cells more rounded, with less spreading than control cells, and interfered with actin regulation were selected for further study. All these selected small molecules were further passed through a number of filtering toxicity assays to eliminate toxic compounds. […] The non-toxic compounds were then analyzed in a zebrafish model. […]
A cell-based readout system was used for compound selection. […] As a further test of toxicity, DAL was injected intraperitoneally at 100 mg/kg in SCID mice and signs of toxicity including cachexia, ruffled fur, diarrhea, anorexia, skin ulceration, and toxic death were monitored.
A screening strategy was developed to identify potential agents that target adhesion of endothelial cells or cancer cells to their substrate. […] The initial screening step quantified the number of cells remaining attached to their wells following incubation with each compound and subsequent washing steps. […] The agents that affect cell adhesion can be monitored through remodeling of actin filaments. […] Changes in actin assembly and cell shape after treatment with 12 compounds were determined. […]

Cdc42 = Cdc42 activation pull-down assay (PAK-PBD) in HUVECs
Protocol: Rac1 and cdc42 activities were measured with a Rac1 (BK035) activation assay biochem kit (Cytoskeleton) according to the manufacturer protocol. In brief, human umbilical vein endothelial cells (HUVECs) were bovine brain extract-starved for 12 hours in 1% FBS-EGM (Lonza) and pretreated with various concentrations of DAL for 30 minutes at 37° C. The HUVECs were then stimulated with VEGF at […] for 15 minutes at 37° C. After stimulation, the cells were immediately incubated on ice, washed twice with PBS, and lysed with lysis buffer. The lysates were pre-cleared and added with 15 μl of PAK-PBD beads for pull-down of activated Rac1 or cdc42. After rocking at 4° C. for 1 hour, the beads were washed once and boiled at 100° C. for 2 minutes. The protein lysates were then resolved in a 8-16% gradient gel (Invitrogen) and transferred to a PVDF membrane. Primary antibodies (anti-Rac1, 1:1000, cytoskeleton or anti-cdc42, 1:1000, cell signaling) were added to bind to the protein overnight at 4° C., followed by incubation with HRP-conjugated secondary antibodies. Protein activity was measured by the standard ECL method (Amersham).
Without wishing to be bound by theory, DAL brings about its antivascular effects by destabilizing cell adhesion through the actin cytoskeleton. […] Therefore, potential targets of DAL in signaling pathways involved in actin remodeling were evaluated. […]

RhoA = RhoA activity affinity purification assay (rhotekin RBD); details: HUVEC cells
Excerpt: Without wishing to be bound by theory, DAL brings about its antivascular effects by destabilizing cell adhesion through the actin cytoskeleton. It was next sought to identify which specific adhesion pathway it targets. Mechanical attachment at cell-cell adherens and tight junctions is regulated by dynamic changes in the actin cytoskeleton. Adherens junctions are composed of E-cadherin/β-catenin complexes and are connected to the actin cytoskeleton via sa-catenin (25-26), while tight junctions consist of transmembrane claudins and occludin and are associated with the actin cytoskeleton via ZO proteins (27-28). Therefore, potential targets of DAL in signaling pathways involved in actin remodeling were evaluated. […] Then, it was sought to determine whether Rho-GTPase family members are targets for DAL due to the disruption of cell adhesion and actin network remodeling along with inhibited motility. Rho-GTPases (e.g., Rac1) plays an important role in actin cytoskeletal organization and is involved in the coordination of cell adhesion (29). Furthermore, Rac1 is responsible for stabilizing endothelial cell junctions by opposing actin remodeling by Rho (30). In order to migrate, cancer cells employ dynamic remodeling of the actin cytoskeleton, form protrusive structures and generate forces necessary to produce cell translocation in the process regulated by Rho-GTPase Rac1. […]

CC1(C)C=CC2=C(O1)C(=O)c1ccccc1C2=O [DAL, dehydro-alpha-lapachone]
effect on existing cordlike networks (HUVEC; 10 μM for 3 hours): complete reorganization of existing networks; also recorded: disrupted
HUVEC network formation on matrigel (HUVEC; after 24 hours / overnight cultivation): blocks HUVEC network formation; also recorded: disjoined networks
cell spreading, size and shape on fibronectin-coated plates (MDA-MB-231 cells): significantly smaller than control cells and had a rounded shape
F-actin distribution (MDA-MB-231 cells; phalloidin): actin was accumulated close to the membrane
Cdc42 activity (Cdc42): no effect
RhoA activity (RhoA): no effect
